From patent publication US9650338B1 (priority 2016, dated 2017)

Tests used:
[1] = biological target: opiate receptor sites in the CNS; assay: Competitive binding to opiate receptor sites in the CNS, rat brain, 3H-Naloxone
[2] = biological target: opiate receptor sites in the CNS; assay: Competitive binding to opiate receptor sites in the CNS, mouse brain; conditions: Brain of the mouse (Table 5, mean; spread in a separate column)
[3] = test system: respiratory depression caused by LD50 of Promedol (Trimeperidine); assay: Antagonism of respiratory depression caused by LD50 of Promedol; conditions: rat, Promedol (Trimeperidine) 70 mg/kg (LD50)
[4] = test system: analgesic effects of the ED99 of morphine; assay: Antagonism of the analgesic effect of the ED99 of morphine, mechanical irritation of the tail; conditions: rat, under skin injection, morphine 5 mg/kg (ED99)

Structure (SMILES)	IC50 ([1]; Brain of the rate (Table 5, mean; spread in a separate column), read-out: IC50)	IC50 ([1]; brain of the rat, 3H-Naloxone (Table 4), read-out: Affinity IC50)	IC50 [2]	Median Antagonistic activity AD50 (parenthetical is range) [3]	Median Antagonistic activity AD50 (parenthetical is range) [4]
CCC(=O)NC1CC(C)N(CCc2ccccc2)CC1C (stereo not shown) [N-[2,5-dimethyl-1-(2-phenylethyl)piperidin-4-yl]propanamide]	0.12 nM	0.12 nM	0.1 nM	5.1 (3.4-7.8) mg/kg	1.2 (0.8-1.64) mg/kg
C=CCN1CC[C@]23c4c5ccc(O)c4O[C@H]2C(=O)CC[C@@]3(O)[C@H]1C5 [naloxone, 17-allyl-4,5a-epoxy-3,14-dihydroxymorphinan-6-one, reference compound]				1.8 (1.1-3.2) mg/kg	0.3 (0.22-0.39) mg/kg
